Here are results for five compounds from ChEMBL document CHEMBL1150977, “A quantitative analysis of kinase inhibitor selectivity” (Nat Biotechnol, 2008).

The target of assay [1] is Ribosomal protein S6 kinase alpha-5 (Homo sapiens, UniProt O75582).
Another assay addresses SRSF protein kinase 1 (Homo sapiens, UniProt Q96SB4).
The target in assay [2] is Serine/threonine-protein kinase pim-3 (Homo sapiens, UniProt Q86V86).
In assay [3] the target is T1, Serine/threonine-protein kinase Chk1 (Homo sapiens, UniProt O14757).
T1 sequence (O14757 whole entry): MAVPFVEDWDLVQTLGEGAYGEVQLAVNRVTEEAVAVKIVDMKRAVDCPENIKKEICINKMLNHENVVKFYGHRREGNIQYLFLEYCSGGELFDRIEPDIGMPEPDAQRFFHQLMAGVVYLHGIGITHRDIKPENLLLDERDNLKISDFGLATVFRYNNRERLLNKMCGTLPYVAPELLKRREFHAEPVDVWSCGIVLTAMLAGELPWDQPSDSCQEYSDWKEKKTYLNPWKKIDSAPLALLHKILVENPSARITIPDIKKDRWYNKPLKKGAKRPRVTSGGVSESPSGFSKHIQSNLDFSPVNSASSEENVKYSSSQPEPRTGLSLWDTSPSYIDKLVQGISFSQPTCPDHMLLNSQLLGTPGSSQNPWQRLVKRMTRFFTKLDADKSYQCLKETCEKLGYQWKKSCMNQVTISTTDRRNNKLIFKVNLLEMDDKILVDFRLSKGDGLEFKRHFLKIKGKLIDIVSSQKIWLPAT

Assay [4] deals with Tyrosine-protein kinase FRK (Homo sapiens, UniProt P42685).
The target in assay [5] is Cyclin-dependent kinase 2 (Homo sapiens, UniProt P24941).
The target in assay [6] is Serine/threonine-protein kinase pim-2 (Homo sapiens, UniProt Q9P1W9).
Assay [7] addresses T2, Phosphatidylinositol 5-phosphate 4-kinase type-2 beta (Homo sapiens, UniProt P78356).
T2 sequence (P78356 whole entry): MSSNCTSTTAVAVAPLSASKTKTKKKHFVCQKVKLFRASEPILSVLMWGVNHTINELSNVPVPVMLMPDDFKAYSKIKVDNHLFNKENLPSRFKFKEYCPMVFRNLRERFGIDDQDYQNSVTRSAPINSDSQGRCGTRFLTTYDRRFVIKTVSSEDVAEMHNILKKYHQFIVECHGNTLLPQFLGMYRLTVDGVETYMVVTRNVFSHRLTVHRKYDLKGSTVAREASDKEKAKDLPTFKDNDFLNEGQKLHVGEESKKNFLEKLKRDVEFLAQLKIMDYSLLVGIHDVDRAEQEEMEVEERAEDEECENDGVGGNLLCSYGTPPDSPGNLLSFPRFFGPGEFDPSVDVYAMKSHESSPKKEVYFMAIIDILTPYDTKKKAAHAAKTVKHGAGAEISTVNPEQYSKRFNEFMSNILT

The target in assay [8] is Citron Rho-interacting kinase (Homo sapiens, UniProt O14578).
Assay [9] addresses T3, Serine/threonine-protein kinase LATS1 (Homo sapiens, UniProt O95835).
T3 sequence (O95835 whole entry): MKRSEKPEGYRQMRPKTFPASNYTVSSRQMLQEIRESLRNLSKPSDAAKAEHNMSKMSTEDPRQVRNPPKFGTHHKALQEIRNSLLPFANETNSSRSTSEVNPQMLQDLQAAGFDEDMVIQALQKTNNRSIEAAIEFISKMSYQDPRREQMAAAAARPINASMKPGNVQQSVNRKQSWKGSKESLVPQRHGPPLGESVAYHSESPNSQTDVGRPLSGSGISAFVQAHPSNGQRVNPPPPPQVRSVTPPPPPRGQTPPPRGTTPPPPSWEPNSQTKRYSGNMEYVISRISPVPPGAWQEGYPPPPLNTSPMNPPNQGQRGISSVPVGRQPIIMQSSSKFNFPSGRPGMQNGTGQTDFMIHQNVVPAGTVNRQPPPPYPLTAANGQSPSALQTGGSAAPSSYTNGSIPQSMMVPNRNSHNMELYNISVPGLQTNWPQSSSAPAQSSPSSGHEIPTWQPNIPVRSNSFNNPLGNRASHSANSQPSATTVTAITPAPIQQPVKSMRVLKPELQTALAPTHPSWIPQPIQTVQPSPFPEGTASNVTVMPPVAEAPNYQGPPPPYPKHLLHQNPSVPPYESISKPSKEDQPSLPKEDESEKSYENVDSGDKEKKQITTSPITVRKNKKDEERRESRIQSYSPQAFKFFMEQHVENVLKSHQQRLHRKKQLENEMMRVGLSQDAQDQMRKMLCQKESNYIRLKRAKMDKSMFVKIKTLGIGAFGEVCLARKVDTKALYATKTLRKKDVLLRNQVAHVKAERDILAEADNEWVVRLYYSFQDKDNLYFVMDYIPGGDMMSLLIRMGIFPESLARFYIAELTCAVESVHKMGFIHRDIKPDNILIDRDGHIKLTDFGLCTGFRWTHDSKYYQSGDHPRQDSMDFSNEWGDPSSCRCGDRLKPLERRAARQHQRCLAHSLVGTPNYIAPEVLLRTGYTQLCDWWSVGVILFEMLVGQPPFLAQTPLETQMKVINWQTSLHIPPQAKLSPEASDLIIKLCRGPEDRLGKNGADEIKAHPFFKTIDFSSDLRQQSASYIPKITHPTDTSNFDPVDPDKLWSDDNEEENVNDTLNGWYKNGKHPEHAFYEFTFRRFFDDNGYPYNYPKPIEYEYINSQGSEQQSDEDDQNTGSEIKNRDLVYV

Assay [10] deals with Cyclin-dependent kinase 7 (Homo sapiens, UniProt P50613).
In assay [11] the target is Serine/threonine-protein kinase PAK 1 (Homo sapiens, UniProt Q13153).
Assay [12] has as its target Calcium/calmodulin-dependent protein kinase type II subunit delta (Homo sapiens, UniProt Q13557).
Assay [13] concerns the target T4, Mitogen-activated protein kinase 12 (Homo sapiens, UniProt P53778).
T4 sequence (P53778 whole entry): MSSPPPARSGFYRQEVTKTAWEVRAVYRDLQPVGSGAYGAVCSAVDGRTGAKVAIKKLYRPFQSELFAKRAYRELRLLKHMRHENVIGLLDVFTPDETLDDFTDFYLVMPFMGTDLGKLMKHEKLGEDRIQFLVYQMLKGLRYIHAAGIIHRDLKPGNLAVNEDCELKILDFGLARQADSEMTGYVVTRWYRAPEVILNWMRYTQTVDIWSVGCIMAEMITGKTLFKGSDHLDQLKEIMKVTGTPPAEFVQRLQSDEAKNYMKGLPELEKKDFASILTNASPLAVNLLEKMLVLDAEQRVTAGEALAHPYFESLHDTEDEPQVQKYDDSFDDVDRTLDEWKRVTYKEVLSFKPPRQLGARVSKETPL

The term Kd denotes a measure of binding affinity in units of concentration.

Sequence of Ribosomal protein S6 kinase alpha-5 (O75582 whole entry): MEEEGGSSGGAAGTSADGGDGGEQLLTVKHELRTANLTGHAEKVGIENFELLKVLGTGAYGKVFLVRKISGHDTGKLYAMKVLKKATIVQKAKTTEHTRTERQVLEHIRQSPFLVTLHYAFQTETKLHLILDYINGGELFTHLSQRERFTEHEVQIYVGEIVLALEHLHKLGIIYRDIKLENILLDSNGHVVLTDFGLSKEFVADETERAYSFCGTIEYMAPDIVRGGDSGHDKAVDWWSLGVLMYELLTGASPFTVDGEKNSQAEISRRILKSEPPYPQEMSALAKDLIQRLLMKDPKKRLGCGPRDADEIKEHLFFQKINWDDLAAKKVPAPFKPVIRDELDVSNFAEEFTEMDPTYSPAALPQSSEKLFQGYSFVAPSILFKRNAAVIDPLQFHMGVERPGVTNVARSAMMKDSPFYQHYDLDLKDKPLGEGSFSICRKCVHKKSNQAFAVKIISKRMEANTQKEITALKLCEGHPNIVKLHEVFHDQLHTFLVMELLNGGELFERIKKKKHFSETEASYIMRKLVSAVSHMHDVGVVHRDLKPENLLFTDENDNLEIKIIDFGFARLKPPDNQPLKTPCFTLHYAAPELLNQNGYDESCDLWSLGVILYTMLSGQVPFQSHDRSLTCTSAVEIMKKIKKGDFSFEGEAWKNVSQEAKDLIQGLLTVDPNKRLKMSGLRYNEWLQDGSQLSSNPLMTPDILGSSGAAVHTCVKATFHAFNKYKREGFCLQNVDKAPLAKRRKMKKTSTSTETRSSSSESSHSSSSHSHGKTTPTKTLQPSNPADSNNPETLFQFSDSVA
Sequence of Cyclin-dependent kinase 7 (P50613 whole entry): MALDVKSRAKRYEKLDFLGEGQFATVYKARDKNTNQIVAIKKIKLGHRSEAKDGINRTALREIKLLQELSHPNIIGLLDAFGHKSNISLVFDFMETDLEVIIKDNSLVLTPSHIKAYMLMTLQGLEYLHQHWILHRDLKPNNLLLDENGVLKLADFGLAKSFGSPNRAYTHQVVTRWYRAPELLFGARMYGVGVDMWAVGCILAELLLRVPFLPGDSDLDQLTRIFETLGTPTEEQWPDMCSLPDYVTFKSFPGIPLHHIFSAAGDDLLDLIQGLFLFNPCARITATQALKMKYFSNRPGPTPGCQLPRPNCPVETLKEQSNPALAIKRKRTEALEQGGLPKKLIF
Sequence of Serine/threonine-protein kinase pim-2 (Q9P1W9 whole entry): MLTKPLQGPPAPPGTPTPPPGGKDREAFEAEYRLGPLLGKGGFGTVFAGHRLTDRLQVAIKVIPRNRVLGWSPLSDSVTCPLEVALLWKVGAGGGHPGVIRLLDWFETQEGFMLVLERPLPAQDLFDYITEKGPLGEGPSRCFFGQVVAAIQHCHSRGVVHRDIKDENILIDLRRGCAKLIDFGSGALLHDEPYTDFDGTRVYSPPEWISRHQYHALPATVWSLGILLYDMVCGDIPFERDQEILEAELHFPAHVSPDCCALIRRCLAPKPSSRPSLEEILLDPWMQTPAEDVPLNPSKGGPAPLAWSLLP
Sequence of Tyrosine-protein kinase FRK (P42685 whole entry): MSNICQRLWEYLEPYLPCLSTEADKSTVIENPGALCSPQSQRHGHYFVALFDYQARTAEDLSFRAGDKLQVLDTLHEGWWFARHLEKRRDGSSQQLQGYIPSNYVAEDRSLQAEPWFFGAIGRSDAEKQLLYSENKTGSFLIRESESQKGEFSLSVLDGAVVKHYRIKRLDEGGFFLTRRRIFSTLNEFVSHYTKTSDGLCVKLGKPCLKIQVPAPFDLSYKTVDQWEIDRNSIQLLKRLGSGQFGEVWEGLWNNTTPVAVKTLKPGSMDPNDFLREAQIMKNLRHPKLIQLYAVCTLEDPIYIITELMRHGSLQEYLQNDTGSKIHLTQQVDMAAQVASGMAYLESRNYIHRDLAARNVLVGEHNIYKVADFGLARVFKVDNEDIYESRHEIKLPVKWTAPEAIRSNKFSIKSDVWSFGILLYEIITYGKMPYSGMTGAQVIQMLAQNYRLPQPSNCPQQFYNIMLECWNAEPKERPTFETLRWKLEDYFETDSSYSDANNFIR
Sequence of Serine/threonine-protein kinase PAK 1 (Q13153 whole entry): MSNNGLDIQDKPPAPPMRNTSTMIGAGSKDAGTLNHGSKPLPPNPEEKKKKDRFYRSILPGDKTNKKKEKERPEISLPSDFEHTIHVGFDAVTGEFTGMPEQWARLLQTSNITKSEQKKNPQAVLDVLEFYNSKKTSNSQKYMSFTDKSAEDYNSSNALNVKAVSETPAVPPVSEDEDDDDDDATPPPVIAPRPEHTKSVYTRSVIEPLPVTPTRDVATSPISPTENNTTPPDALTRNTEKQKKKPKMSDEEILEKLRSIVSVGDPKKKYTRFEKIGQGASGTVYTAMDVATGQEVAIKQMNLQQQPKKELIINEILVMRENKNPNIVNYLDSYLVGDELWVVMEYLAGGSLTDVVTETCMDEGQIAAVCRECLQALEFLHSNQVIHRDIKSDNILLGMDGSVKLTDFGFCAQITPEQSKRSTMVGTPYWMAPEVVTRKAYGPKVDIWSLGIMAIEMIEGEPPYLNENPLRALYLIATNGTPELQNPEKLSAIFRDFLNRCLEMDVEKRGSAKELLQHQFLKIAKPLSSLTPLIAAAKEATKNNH
Sequence of SRSF protein kinase 1 (Q96SB4 whole entry): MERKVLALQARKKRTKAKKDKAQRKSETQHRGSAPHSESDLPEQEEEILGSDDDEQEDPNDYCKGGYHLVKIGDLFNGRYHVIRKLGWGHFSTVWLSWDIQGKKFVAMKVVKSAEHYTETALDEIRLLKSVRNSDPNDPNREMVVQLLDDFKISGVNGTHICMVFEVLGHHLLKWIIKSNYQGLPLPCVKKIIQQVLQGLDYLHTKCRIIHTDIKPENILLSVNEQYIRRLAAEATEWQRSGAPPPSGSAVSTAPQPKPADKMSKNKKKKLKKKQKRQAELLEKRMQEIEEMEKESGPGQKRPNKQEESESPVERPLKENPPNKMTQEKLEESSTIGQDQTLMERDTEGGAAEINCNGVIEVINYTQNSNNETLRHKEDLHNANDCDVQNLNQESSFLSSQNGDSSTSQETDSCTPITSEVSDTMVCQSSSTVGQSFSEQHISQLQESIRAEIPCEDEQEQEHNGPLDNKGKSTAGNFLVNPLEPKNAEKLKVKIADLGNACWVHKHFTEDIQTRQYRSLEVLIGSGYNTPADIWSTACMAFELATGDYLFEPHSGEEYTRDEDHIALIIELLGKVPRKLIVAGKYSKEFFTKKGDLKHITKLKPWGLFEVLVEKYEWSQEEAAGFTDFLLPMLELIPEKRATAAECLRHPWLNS
Sequence of Calcium/calmodulin-dependent protein kinase type II subunit delta (Q13557 whole entry): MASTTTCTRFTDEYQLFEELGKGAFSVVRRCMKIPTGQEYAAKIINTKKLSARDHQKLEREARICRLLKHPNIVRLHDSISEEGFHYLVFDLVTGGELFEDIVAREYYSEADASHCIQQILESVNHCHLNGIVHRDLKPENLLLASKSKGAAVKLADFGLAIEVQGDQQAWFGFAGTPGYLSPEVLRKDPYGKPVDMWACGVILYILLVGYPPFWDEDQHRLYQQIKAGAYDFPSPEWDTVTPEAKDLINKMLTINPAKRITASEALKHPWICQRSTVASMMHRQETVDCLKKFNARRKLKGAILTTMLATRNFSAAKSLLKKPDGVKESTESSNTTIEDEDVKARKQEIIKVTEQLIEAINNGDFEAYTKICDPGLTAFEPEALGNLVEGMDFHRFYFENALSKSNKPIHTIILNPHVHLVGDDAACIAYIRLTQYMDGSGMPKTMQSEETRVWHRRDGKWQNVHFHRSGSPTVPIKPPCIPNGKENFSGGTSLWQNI

Regarding `Oc1ccc(-c2nc(-c3ccncc3)c(-c3ccc(F)cc3)[nH]2)cc1` [SB-202190], the Kd in assay [1] is more than 10 µM; at SRSF protein kinase 1, more than 10 µM; in [2], more than 10 µM; in assay [3] it was more than 10 µM; in assay [4] it was 3.1 µM; in assay [5], more than 10 µM. In addition, the Kd is more than 10 µM in assay [6]; more than 10 µM in [7]; 0.51 µM in assay [8]; more than 10 µM in assay [9]; more than 10 µM in assay [10]; more than 10 µM in [11]. The Kd in assay [12] was more than 10 µM.
Consider `COCC(=O)NC/C=C/c1ccc2ncnc(Nc3ccc(Oc4ccc(C)nc4)c(C)c3)c2c1` [CP-724714], for which the Kd (in assay [1]; on SRSF protein kinase 1; in assay [2]; in assay [3]; in assay [4]; in assay [5]) was more than 10 µM throughout. Moreover, the Kd in [13], in [6], in assay [7], in assay [8], in [9] and in assay [10] was more than 10 µM throughout. The dissociation constant (Kd) in assay [11] and in assay [12] was more than 10 µM throughout.
Consider `Nc1nc(Nc2ccc(S(N)(=O)=O)cc2)nn1C(=O)c1c(F)cccc1F` [JNJ-7706621], for which the Kd in assay [1], in [2], in assay [4], in assay [13], in assay [6] and in assay [8] was more than 10 µM in each case. Moreover, the dissociation constant (Kd) in assay [9], in assay [11] and in [12] was more than 10 µM throughout.
`NC(=O)c1ccc(-c2nc(-c3ccc4c(c3)OCO4)c(-c3ccccn3)[nH]2)cc1` [SB-431542]: the Kd (in [1]; at SRSF protein kinase 1; in assay [2]; in [3]; in assay [4]; in [13]) was more than 10 µM throughout. Moreover, the Kd in assay [6], in assay [7], in assay [8], in assay [9], in [10] and in assay [11] was more than 10 µM in each case. Further, in [12], the Kd is more than 10 µM.
On to `CCOc1cc2ncc(C#N)c(Nc3ccc(F)c(Cl)c3)c2cc1NC(=O)/C=C/CN(C)C` [PELITINIB], for which the Kd in assay [1] was more than 10 µM; at SRSF protein kinase 1, more than 10 µM; in assay [2], more than 10 µM; in assay [3] it was 1.9 µM; in assay [5] it was more than 10 µM; in assay [13], more than 10 µM. Further, the Kd was more than 10 µM in [6]; 0.31 µM in assay [8]; more than 10 µM in assay [9]; more than 10 µM in assay [10]; more than 10 µM in assay [12].
